Key:
thymidine kinase = assay: Effect of selection media on wild type, thymidine kinase-RNAi and thymidine kinase knock out cells (survival / cell death); assay type: cell-based; conditions: for Effect of selection medium on cells: RNAi: cells expressing RNAi-constructs directed against thymidine kinase; for Effect of selection medium on cells: knock out: cells with thymidine kinase inactivated on the chromosomal level; for Effect of selection medium on cells: wild type: gene thymidine kinase; for all read-outs here: key: Survival of the cells in the respective selective conditions is marked +; cell death in the respective selective condition is marked −
APRT = assay: Effect of selection media on wild type, APRT-RNAi and APRT knock out cells (survival / cell death); assay type: cell-based; conditions: for Effect of selection medium on cells: RNAi: cells expressing RNAi-constructs directed against APRT; for Effect of selection medium on cells: knock out: cells with APRT inactivated on the chromosomal level; for Effect of selection medium on cells: wild type: gene APRT; for all read-outs here: key: Survival of the cells in the respective selective conditions is marked +; cell death in the respective selective condition is marked −
HPRT = assay: Effect of selection media on wild type, HPRT-RNAi and HPRT knock out cells (survival / cell death); assay type: cell-based; conditions: for Effect of selection medium on cells: RNAi: cells expressing RNAi-constructs directed against HPRT; for Effect of selection medium on cells: knock out: cells with HPRT inactivated on the chromosomal level; for Effect of selection medium on cells: wild type: gene HPRT

Q: With `O=c1[nH]c(=O)n([C@H]2C[C@H](O)[C@@H](CO)O2)cc1C(F)(F)F` [trifuorothymidine] as the compound, how does the “Effect of selection medium on cells: RNAi” value (thymidine kinase) read?
A: Its value is “+”.

Q: And the “Effect of selection medium on cells: knock out” value (thymidine kinase)?
A: The value was “+”.

Q: And the “Effect of selection medium on cells: wild type” value (thymidine kinase)?
A: The value was “−”.

Q: With `Nc1ncnc2nn[nH]c12` [8-azaadenine] as the compound, how does the “Effect of selection medium on cells: RNAi” value (APRT) read?
A: Its value is “+”.

Q: And the “Effect of selection medium on cells: knock out” value (APRT)?
A: Its value is “+”.

Q: What about the “Effect of selection medium on cells: wild type” value (APRT) of the same compound?
A: The value was “−”.

Q: With `Nc1nc2c(nnn2[C@@H]2O[C@H](CO)[C@@H](O)[C@H]2O)c(=O)[nH]1` [8-azaguanosine] as the compound, how does the “Effect of selection medium on cells: RNAi” value (HPRT) read?
A: The value was “+”.

Q: What about the “Effect of selection medium on cells: knock out” value (HPRT) of the same compound?
A: Its value is “+”.

Q: What about the “Effect of selection medium on cells: wild type” value (HPRT) of the same compound?
A: Its value is “−”.

Q: `Nc1nc(F)nc2nc[nH]c12` [2-fluoroadenine] was tested. Which “Effect of selection medium on cells: RNAi” value (APRT) did it give?
A: Its value is “+”.

Q: What about the “Effect of selection medium on cells: knock out” value (APRT) of the same compound?
A: Its value is “+”.

Q: And the “Effect of selection medium on cells: wild type” value (APRT)?
A: The value was “−”.

Q: How did the “Effect of selection medium on cells: RNAi” value (APRT) turn out when `Nc1nc(N)c2nc[nH]c2n1` [diaminopurine] was run?
A: Its value is “+”.

Q: And the “Effect of selection medium on cells: knock out” value (APRT)?
A: Its value is “+”.

Q: And the “Effect of selection medium on cells: wild type” value (APRT)?
A: Its value is “−”.

Q: Which “Effect of selection medium on cells: RNAi” value (DHFR; cells expressing RNAi-constructs directed against DHFR) does the source give for `CN(Cc1cnc2nc(N)nc(N)c2n1)c1ccc(C(=O)N[C@@H](CCC(=O)O)C(=O)O)cc1` [methotrexate] here?
A: Its value is “−”.

Q: What about the “Effect of selection medium on cells: knock out” value (DHFR; cells with DHFR inactivated on the chromosomal level) of the same compound?
A: Its value is “−”.

Q: What about the “Effect of selection medium on cells: wild type” value (DHFR; wild type cells, gene DHFR) of the same compound?
A: Its value is “+”.

Q: What does the source list for `Nc1nc2c(ncn2[C@@H]2O[C@H](CO)[C@@H](O)[C@H]2O)c(=S)[nH]1` [6-thioguanosine]?
A: Effect of selection medium on cells: RNAi (HPRT): +; Effect of selection medium on cells: knock out (HPRT): +; Effect of selection medium on cells: wild type (HPRT): −

Q: What does the source list for `O=c1[nH]c(=O)n([C@H]2C[C@H](O)[C@@H](CO)O2)cc1Br` [bromodesoxyuridine]?
A: Effect of selection medium on cells: RNAi (thymidine kinase): +; Effect of selection medium on cells: knock out (thymidine kinase): +; Effect of selection medium on cells: wild type (thymidine kinase): −
